Assay results taken from US6696498B2, “2-cyclopenten-1-one and its derivatives as inhibitors of the NF-kB factor” (Consiglio Nazionale Della Richerche, priority 1996, dated 2004).
Each block holds one compound with its values, some of them ahead of it.

What was measured:
NF-kB [1] = target: T1, NF-kB (Homo sapiens, UniProt P19838+Q04206); experiment: TPA-induced NF-kB activation in Jurkat cells, EMSA of whole-cell extracts; format: cell-based; conditions: then TPA 25 ng/ml, extracts after 3 hours; for inhibition of TPA-induced NF-kB activation (specificity): 500 uM for 1 hour, FIG. 1C
T1 construct: endogenous in cells; host or cells: Jurkat (human T lymphoid cell line)
From the text: (§1) Inhibition tests have been carried out in type T lymphoid human cells (Jurkat cell line), as well as in other human cell lines. NF-kB activation was stimulated with 12-o-tetradecanoyl-phorbol-13-acetate (TPA). 2-Cyclopenten-1-one was also effective in inhibiting NF-kB activation after other types of stimulation, including stimulation by tumor necrosis factor alpha or viral infection, and in different types of human cells (data not shown).
The effect of the treatment with 2-cyclopenten-1-one on NF-kB activation by TPA has been tested in Jurkat cells by using the procedures described hereinbelow and shown in FIG. 1.
(§2) The cells were prepared according to the method described in C. Amici et al. (Cancer Research 55, 4452-4457, 1995).
(§3) The cells were treated with 2-cyclopenten-1-one at different concentrations (125-1000 μM) for 1 hour and then were stimulated with TPA (25 ng/ml).
(§4) After 3 hours the whole-cell extracts were prepared and subjected to EMSA (Electrophoretic Mobility Shift Assay) as described for NF-kB in U. Zabel et al. (J. Biol. Chem. 266: 242, 1991) and HSF in C. Amici et al. (Cancer Res. 55: 4452, 1995), to determine NF-kB and HSF activation respectively.
(§5) The cells were treated for 1 hour with the same concentration (500 uM) of: 2-cyclopenten-1-one, cyclopentanone or cyclopentene, and then were stimulated with TPA (25 ng/ml). C represents the non-TPA-stimulated control. After 3 hours the whole-cell extracts were prepared and subjected to EMSA to verify the activation of NF-kB (FIG. 1C) and of HSF (FIG. 1D) respectively.

[2] = tested on: HSF (Heat Shock Transcription Factor); experiment: HSF activation in TPA-stimulated Jurkat cells, EMSA of whole-cell extracts; format: cell-based, human; conditions: then TPA 25 ng/ml, extracts after 3 hours; for activation of HSF (specificity): 500 uM for 1 hour, FIG. 1D
Protocol: as §2, §3, §4
The positions of the complex HSF-DNA (HSF), the HSF-DNA constitutive activity (CHBA) and the proteins-DNA non-specific interactions (ns) are indicated in FIG. 1B. The line “econtrol” indicates the non-TPA-stimulated cells as a control of non-activated NF-kB.
as §5

NF-kB [3] = target: T1, NF-kB; experiment: NF-kB activation after other types of stimulation (tumor necrosis factor alpha or viral infection) in different human cells; format: cell-based; conditions: stimulation by tumor necrosis factor alpha or viral infection, data not shown
From the text: as §1

T1 sequence (P19838 1-433 limits assumed): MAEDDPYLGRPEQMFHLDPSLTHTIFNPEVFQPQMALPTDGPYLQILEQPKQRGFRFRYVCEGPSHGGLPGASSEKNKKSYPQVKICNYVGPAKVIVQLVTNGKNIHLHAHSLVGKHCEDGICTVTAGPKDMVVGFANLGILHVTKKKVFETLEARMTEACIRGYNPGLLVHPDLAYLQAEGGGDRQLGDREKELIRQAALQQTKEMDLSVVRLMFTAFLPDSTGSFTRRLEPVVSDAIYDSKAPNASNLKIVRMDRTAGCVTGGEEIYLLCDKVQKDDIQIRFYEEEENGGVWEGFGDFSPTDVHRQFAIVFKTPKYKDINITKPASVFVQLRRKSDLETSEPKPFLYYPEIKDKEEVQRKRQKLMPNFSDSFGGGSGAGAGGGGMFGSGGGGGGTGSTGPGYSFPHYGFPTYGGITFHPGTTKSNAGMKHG
T1 sequence (Q04206 whole entry): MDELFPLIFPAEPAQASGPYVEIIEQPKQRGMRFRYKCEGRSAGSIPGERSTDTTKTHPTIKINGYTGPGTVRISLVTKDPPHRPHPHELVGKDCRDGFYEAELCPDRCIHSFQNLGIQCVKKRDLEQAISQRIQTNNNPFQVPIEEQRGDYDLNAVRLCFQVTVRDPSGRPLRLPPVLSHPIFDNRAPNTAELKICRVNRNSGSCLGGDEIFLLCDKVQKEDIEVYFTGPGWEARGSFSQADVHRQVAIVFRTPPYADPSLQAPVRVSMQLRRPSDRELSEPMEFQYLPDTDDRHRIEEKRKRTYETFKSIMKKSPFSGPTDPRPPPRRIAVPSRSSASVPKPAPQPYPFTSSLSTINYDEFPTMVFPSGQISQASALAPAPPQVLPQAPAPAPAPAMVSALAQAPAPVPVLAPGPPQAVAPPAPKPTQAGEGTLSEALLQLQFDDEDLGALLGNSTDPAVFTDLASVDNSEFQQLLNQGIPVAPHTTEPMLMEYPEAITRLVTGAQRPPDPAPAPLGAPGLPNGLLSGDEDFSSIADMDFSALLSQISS

Structure (SMILES): O=C1C=CCC1 [2-cyclopenten-1-one]
inhibition of NF-kB activation by TPA (NF-kB [1]; 125 uM for 1 hour, FIG. 1A): able to inhibit | inhibition of TPA-induced NF-kB activation (specificity) (NF-kB [1]): inhibits | NF-kB band (NF-kB-DNA complex) in EMSA (NF-kB [1]; 500 um for 1 hour, FIG. 1A): absent | concentration from which activation of HSF is evident ([2]; 125-1000 μM for 1 hour, FIG. 1B): ≥ 125 µM | inhibition of NF-kB activation after other types of stimulation (NF-kB [3]): effective

Structure (SMILES): O=C1CCCC1 [cyclopentanone, reference compound]
inhibition of TPA-induced NF-kB activation (specificity) (NF-kB [1]): do not inhibit | activation of HSF (specificity) [2]: do not activate

inhibition of TPA-induced NF-kB activation (specificity) (NF-kB [1]): do not inhibit
Structure (SMILES): C1=CCCC1 [cyclopentene, reference compound]
activation of HSF (specificity) [2]: do not activate
